Laboratory results taken from US9862713B2, “Substituted bicyclic heteroaryl compounds as RXR agonists” (CONNEXIOS LIFE SCIENCES PVT. LTD., priority 2014, dated 2018).

How the values were obtained:
[1] = test system: HL-60 promyelocytic leukemia cell line; assay: HL-60 differentiation (NBT reduction); type: cell-based; settings: 72 h culture, NBT reduction at 540 nm
Experimental: Progression of promyelocytic leukemia can be abrogated by their differentiation. […] In order to estimate the differentiating ability of compound-40, HL-60 promyelocytic leukemia cell line was used as an in vitro model of the disease. HL-60 cells were cultured for 72 h as either control or under treatment as mentioned. After 72 h of culture, cells were exposed to nitro blue tetrazolium (NBT) solution containing phorbol myristate acetate (PMA) for 1 h at 37° C. Differentiated cells have increased oxidative burst potential which reduces NBT. Levels of reduced NBT were measured at 540 nm absorption.

[2] = test system: hRXR α, β, or γ; assay: Transactivation assay (RARE-Luc dual luciferase reporter in HEK-293 cells), activity relative to LG268; type: cell-based, human; settings: compound at 300 nM, 24 h; luciferase activity expressed relative to LG268
Summary of the method: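 HEK-293 cells co-transfected with hRXR α, β or γ expression vector, RARE-firefly luciferase and renilla luciferase; 24 h later treated with agonist (100 nM, 300 nM, 1 uM) for 24 h. Firefly signal normalized to renilla; activity expressed relative to the RXR agonist LG268.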

## CC1=C(/C=C/C(C)=C/C=C/C(C)=C/C(=O)O)C(C)(C)CCC1 [ATRA, all transretinoic acid, reference compound]
[1]
  HL-60 cells differentiation: induced differentiation

## CC1(C)CCC(C)(C)c2sc(Nc3ccc(C(=O)O)cc3O)nc21 [Compound 92, 3-hydroxy-4-[(4,4,7,7-tetramethyl-4,5,6,7-tetrahydro-1,3-benzothiazol-2-yl)amino]benzoic acid]
[2]
  Activity at 300 nM: * (<0.3)

## CC1(C)CCC(C)(C)c2sc(C(=O)c3ccc(C(=O)O)nc3)nc21 [Compound 93, 5-[(4,4,7,7-tetramethyl-4,5,6,7-tetrahydro-1,3-benzothiazol-2-yl)carbonyl]pyridine-2-carboxylic acid]
[2]
  Activity at 300 nM: * (<0.3)

## C=C(c1ccc(C(=O)O)nc1)c1nc2c(s1)C(C)(C)CCC2(C)C [Compound 94, 5-[1-(4,4,7,7-tetramethyl-4,5,6,7-tetrahydro-1,3-benzothiazol-2-yl)ethenyl]pyridine-2-carboxylic acid]
[2]
  Activity at 300 nM: ** (>0.3 and <0.4)

## CC1(C)CCC(C)(C)c2sc(C(=O)c3ccc(C(=O)O)cn3)nc21 [Compound 95, 6-[(4,4,7,7-tetramethyl-4,5,6,7-tetrahydro-1,3-benzothiazol-2-yl)carbonyl]pyridine-3-carboxylic acid]
[2]
  Activity at 300 nM: ** (>0.3 and <0.4)

## CC1(C)CCC(C)(C)c2sc(C(C)(O)c3ccc(C(=O)O)cn3)nc21 (stereo not drawn) [Compound 96, 6-[1-hydroxy-1-(4,4,7,7-tetramethyl-4,5,6,7-tetrahydro-1,3-benzothiazol-2-yl)ethyl]pyridine-3-carboxylic acid]
[2]
  Activity at 300 nM: ** (>0.3 and <0.4)

## C=C(c1ccc(C(=O)O)cc1)c1nc2c(s1)C(C)(C)CCC2(C)C [Compound 97, 4-[1-(4,4,7,7-tetramethyl-4,5,6,7-tetrahydro-1,3-benzothiazol-2-yl)ethenyl]benzoic acid]
[2]
  Activity at 300 nM: ** (>0.3 and <0.4)

## CC1(C)CCC(C)(C)c2sc(C3(c4ccc(C(=O)O)cc4)CC3)nc21 [Compound 98, 4-[1-(4,4,7,7-tetramethyl-4,5,6,7-tetrahydro-1,3-benzothiazol-2-yl)cyclopropyl]benzoic acid]
[2]
  Activity at 300 nM: **** (>0.5 to <0.6)

## CC1(C)CCC(C)(C)c2sc(N(c3ccc(C(=O)O)cn3)C3CCC3)nc21 [Compound 99, 6-[cyclobutyl(4,4,7,7-tetramethyl-4,5,6,7-tetrahydro-1,3-benzothiazol-2-yl)amino]pyridine-3-carboxylic acid]
[2]
  Activity at 300 nM: ***** (>0.6)

## CC1(C)CCC(C)(C)c2sc(N(c3ccccc3)c3ccc(C(=O)O)cc3)nc21 [Compound 100, 4-[phenyl(4,4,7,7-tetramethyl-4,5,6,7-tetrahydro-1,3-benzothiazol-2-yl)amino]benzoic acid]
[2]
  Activity at 300 nM: ***** (>0.6)

## CC1(C)CCC(C)(C)c2sc(N(c3ccc(C(=O)O)cc3)c3ccccn3)nc21 [Compound 101, 4-[pyridin-2-yl(4,4,7,7-tetramethyl-4,5,6,7-tetrahydro-1,3-benzothiazol-2-yl)amino]benzoic acid]
[2]
  Activity at 300 nM: *** (>0.4 and <0.5)

## Cc1c(N(c2ccccc2)c2ccc(C(=O)O)cc2)sc2c1C(C)(C)CCC2(C)C [Compound 102, 4-[(3,4,4,7,7-pentamethyl-4,5,6,7-tetrahydro-1-benzothiophen-2-yl) (phenyl)amino]benzoic acid]
[2]
  Activity at 300 nM: ***** (>0.6)

## Cc1c(N(c2ccc(C(=O)O)cc2)c2ccccn2)sc2c1C(C)(C)CCC2(C)C [Compound 103, 4-[(3,4,4,7,7-pentamethyl-4,5,6,7-tetrahydro-1-benzothiophen-2-yl) (pyridin-2-yl)amino]benzoic acid]
[2]
  Activity at 300 nM: ***** (>0.6)

## Cc1c(N(Cc2ccccn2)c2ccc(C(=O)O)cc2)sc2c1C(C)(C)CCC2(C)C [Compound 104, 4-[(3,4,4,7,7-pentamethyl-4,5,6,7-tetrahydro-1-benzothiophen-2-yl) (pyridin-2-ylmethyl)amino]benzoic acid]
[2]
  Activity at 300 nM: * (<0.3)

## CC1(C)CCC(C)(C)c2sc(N(CC3CC3)c3ccc(CC(=O)O)cc3)nc21 [Compound 105, {4-[(cyclopropylmethyl) (4,4,7,7-tetramethyl-4,5,6,7-tetrahydro-1,3-benzothiazol-2-yl)amino]phenyl}acetic acid]
[2]
  Activity at 300 nM: ***** (>0.6)

## CC1(C)CCC(C)(C)c2sc(N(CC3CC3)c3ccc(CCC(=O)O)cc3)nc21 [Compound 106, 3-{4-[(cyclopropylmethyl) (4,4,7,7-tetramethyl-4,5,6,7-tetrahydro-1,3-benzothiazol-2-yl)amino]phenyl}propanoic acid]
[2]
  Activity at 300 nM: ***** (>0.6)

## CC1(C)CCC(C)(C)c2sc(N(CC3CC3)c3ccc(/C=C/C(=O)O)cc3)nc21 [Compound 107]
[2]
  Activity at 300 nM: ***** (>0.6)

## CC1(C)CCC(C)(C)c2sc(N(CC3CC3)c3ccc(C4CC4C(=O)O)cc3)nc21 (stereo not drawn) [Compound 108, 2-{4-[(cyclopropylmethyl) (4,4,7,7-tetramethyl-4,5,6,7-tetrahydro-1,3-benzothiazol-2-yl)amino]phenyl}cyclopropanecarboxylic acid]
[2]
  Activity at 300 nM: ***** (>0.6)
